Results from ChEMBL document CHEMBL3822371, “Rapid Discovery and Structure-Activity Relationships of Pyrazolopyrimidines That Potently Suppress Breast Cancer Cell Growth via SRC Kinase Inhibition with Exceptional Selectivity over ABL Kinase” (J Med Chem, 2016).
Calls of active or inactive are those of the source. No cut-off for these calls is given here.

Legend:
[1] = biological target: Tyrosine-protein kinase Yes (Homo sapiens, UniProt P07947); test: Inhibition of human YES using poly[Glu,Tyr]4:1 as substrate in presence of [gamma-33P] ATP
[2] = biological target: Platelet-derived growth factor receptor alpha (Homo sapiens, UniProt P16234); test: Inhibition of human PDGFRalpha using poly[Glu,Tyr]4:1 as substrate in presence of [gamma-33P]ATP
[3] = test system: MCF7; test: cells; conditions: Homo sapiens, MCF7, 120 h
[4] = test system: MDA-MB-231; test: Increase in total SRC in human MDA-MB-231 cells preincubated for 1.5 hrs followed by serum stimulation for 1 hr by Western blot analysis; format: cell-based; conditions: mda-mb-231, 1 h
[5] = species: Danio rerio; test: Cardiotoxicity in wild-type zebrafish embryos at >10 uM treated for 4 hrs measured after 48 hrs by fluorescent microscopy; format: organism-based; conditions: in vivo
[6] = species: Danio rerio; test: Toxicity in wild-type zebrafish embryos assessed as mortality at >10 uM treated for 4 hrs measured after 48 hrs by fluorescent microscopy; format: organism-based; conditions: in vivo
[7] = Solubility of the compound in water at pH 2.6; format: physicochemical
[8] = Solubility of the compound in water at pH 7; format: physicochemical
[9] = Half life in nude mouse at 10 mg/kg, […] via oral gavage; format: ADME, organism-based; conditions: in vivo
[10] = species: Danio rerio; test: Cardiotoxicity in wild-type zebrafish embryos assessed as heart enlargement at 1 to 10 uM treated for 4 hrs measured after 48 hrs by fluorescent microscopy; format: toxicity, organism-based; conditions: in vivo
[11] = test system: MCF7; test: Antiproliferative activity against human MCF7 cells assessed as reduction in cell confluence level at […] after 5 days by microscopy based time-lapse imaging assay; format: functional
[12] = test system: MDA-MB-231; test: cells; conditions: Homo sapiens, MDA-MB-231, 120 h
[13] = biological target: Mast/stem cell growth factor receptor Kit (Homo sapiens, UniProt P10721); test: Inhibition of human KIT using poly[Glu,Tyr]4:1 as substrate in presence of [gamma-33P]ATP
[14] = biological target: Serine/threonine-protein kinase mTOR (Homo sapiens, UniProt P42345); test: Inhibition of human mTOR using poly[Glu,Tyr]4:1 as substrate in presence of [gamma-33P]ATP
[15] = biological target: Proto-oncogene tyrosine-protein kinase receptor Ret (Homo sapiens, UniProt P07949); test: Inhibition of human RET using poly[Glu,Tyr]4:1 as substrate in presence of [gamma-33P]ATP
[16] = biological target: Proto-oncogene tyrosine-protein kinase Src (Homo sapiens, UniProt P12931); test: biochemical; format: cell-based
[17] = test system: MCF7; test: Antiproliferative activity against human MCF7 cells assessed as blockage of cell division at […] after 48 to 120 hrs by microscopy based time-lapse imaging assay; format: functional
[18] = biological target: Tyrosine-protein kinase ABL1 (Homo sapiens, UniProt P00519)
[19] = biological target: Tyrosine-protein kinase Fyn (Homo sapiens, UniProt P06241); test: Inhibition of human FYN using poly[Glu,Tyr]4:1 as substrate in presence of [gamma-33P]ATP

Platelet-derived growth factor receptor alpha, sequence (P16234 whole entry): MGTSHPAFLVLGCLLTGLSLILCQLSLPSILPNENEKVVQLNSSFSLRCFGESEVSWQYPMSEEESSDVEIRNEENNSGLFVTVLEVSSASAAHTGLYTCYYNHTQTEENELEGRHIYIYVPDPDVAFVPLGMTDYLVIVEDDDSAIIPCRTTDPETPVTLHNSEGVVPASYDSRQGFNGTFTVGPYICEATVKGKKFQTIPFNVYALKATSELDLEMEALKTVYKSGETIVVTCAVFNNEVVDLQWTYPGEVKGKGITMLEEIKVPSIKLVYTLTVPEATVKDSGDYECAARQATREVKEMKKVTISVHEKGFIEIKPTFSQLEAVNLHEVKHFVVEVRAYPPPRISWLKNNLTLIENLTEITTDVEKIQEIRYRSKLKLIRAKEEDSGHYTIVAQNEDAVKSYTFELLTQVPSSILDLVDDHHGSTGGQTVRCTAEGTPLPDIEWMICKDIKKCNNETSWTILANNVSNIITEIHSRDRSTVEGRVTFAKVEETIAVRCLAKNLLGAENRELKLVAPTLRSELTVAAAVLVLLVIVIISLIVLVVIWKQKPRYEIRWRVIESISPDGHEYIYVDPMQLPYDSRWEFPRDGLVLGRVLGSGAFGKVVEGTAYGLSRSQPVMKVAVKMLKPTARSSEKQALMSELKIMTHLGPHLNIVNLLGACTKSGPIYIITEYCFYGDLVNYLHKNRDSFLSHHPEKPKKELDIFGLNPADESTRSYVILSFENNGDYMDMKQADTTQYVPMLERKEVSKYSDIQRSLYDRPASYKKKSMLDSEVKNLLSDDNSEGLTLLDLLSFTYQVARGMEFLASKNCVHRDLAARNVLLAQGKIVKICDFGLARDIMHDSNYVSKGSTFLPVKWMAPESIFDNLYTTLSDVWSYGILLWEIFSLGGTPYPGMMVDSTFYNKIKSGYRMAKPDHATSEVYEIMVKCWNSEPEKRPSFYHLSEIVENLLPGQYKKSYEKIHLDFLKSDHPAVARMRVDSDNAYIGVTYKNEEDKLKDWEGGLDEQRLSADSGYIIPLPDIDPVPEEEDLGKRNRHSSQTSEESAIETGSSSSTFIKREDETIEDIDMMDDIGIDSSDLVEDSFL
Proto-oncogene tyrosine-protein kinase receptor Ret, sequence (P07949 whole entry): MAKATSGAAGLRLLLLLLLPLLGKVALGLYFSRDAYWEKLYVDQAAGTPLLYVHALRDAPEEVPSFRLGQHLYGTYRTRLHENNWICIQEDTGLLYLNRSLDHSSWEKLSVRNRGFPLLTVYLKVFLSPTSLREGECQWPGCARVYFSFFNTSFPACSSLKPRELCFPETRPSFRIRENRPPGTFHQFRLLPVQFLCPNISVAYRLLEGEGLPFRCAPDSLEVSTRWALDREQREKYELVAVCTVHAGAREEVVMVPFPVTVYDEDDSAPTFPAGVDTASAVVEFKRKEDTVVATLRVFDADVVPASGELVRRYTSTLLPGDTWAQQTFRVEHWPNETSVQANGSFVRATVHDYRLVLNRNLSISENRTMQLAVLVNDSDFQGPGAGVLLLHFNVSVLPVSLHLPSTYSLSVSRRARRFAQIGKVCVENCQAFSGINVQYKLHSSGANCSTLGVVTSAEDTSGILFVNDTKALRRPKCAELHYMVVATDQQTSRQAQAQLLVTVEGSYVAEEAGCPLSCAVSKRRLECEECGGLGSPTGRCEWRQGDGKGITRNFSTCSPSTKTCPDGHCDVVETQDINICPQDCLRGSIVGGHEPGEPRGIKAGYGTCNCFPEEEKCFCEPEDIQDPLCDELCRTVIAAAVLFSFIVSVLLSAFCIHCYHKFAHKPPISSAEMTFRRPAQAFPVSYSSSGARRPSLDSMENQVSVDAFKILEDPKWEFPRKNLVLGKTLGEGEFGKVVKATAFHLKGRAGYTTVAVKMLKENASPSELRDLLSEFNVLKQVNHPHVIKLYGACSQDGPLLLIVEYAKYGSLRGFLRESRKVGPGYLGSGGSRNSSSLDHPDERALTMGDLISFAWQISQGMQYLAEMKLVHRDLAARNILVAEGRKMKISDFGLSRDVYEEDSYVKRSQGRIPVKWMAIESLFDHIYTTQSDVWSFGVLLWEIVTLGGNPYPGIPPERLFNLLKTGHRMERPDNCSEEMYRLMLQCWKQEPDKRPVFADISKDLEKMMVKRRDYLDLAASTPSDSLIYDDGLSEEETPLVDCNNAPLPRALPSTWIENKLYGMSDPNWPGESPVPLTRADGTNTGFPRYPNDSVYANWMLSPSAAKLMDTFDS
Mast/stem cell growth factor receptor Kit, sequence (P10721 whole entry): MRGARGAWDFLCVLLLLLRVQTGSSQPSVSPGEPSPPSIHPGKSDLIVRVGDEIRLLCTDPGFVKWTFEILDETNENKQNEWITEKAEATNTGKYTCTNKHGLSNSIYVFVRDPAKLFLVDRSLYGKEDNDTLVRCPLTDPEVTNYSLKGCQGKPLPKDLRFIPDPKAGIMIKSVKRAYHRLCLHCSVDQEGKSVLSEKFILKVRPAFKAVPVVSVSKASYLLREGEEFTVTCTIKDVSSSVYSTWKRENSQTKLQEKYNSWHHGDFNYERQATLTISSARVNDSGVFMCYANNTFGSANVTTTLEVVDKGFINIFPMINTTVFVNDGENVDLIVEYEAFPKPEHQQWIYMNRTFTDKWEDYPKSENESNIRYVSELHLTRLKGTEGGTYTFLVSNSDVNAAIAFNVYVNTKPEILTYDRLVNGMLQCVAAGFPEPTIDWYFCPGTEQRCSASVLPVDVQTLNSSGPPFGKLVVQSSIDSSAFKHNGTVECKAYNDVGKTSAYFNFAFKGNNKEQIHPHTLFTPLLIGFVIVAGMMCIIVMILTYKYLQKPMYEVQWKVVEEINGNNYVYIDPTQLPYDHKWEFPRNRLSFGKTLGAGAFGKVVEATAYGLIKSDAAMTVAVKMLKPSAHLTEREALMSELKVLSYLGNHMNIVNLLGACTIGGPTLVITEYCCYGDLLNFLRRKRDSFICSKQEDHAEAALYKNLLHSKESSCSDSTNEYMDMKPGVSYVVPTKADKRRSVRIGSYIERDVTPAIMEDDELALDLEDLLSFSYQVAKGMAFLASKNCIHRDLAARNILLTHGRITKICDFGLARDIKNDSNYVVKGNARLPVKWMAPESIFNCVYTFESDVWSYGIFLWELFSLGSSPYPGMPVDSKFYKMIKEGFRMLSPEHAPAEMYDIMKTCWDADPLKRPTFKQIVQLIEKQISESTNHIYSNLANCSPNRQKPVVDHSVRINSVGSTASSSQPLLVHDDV
Tyrosine-protein kinase Yes, sequence (P07947 whole entry): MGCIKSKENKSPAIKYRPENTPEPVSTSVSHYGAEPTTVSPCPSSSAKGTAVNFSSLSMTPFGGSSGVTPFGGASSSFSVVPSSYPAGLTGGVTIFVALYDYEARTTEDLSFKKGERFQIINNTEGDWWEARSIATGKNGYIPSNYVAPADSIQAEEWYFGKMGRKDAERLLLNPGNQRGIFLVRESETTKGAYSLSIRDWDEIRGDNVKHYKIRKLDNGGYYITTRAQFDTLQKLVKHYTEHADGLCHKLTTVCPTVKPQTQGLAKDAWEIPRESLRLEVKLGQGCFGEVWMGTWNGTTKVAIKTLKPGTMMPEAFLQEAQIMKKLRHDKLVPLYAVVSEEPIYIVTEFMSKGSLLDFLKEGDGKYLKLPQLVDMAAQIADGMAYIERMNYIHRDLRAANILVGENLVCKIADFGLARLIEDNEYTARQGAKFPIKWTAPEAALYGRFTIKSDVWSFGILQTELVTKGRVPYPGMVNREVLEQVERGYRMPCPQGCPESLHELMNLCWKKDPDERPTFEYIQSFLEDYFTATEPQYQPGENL
Tyrosine-protein kinase ABL1, sequence (P00519 whole entry): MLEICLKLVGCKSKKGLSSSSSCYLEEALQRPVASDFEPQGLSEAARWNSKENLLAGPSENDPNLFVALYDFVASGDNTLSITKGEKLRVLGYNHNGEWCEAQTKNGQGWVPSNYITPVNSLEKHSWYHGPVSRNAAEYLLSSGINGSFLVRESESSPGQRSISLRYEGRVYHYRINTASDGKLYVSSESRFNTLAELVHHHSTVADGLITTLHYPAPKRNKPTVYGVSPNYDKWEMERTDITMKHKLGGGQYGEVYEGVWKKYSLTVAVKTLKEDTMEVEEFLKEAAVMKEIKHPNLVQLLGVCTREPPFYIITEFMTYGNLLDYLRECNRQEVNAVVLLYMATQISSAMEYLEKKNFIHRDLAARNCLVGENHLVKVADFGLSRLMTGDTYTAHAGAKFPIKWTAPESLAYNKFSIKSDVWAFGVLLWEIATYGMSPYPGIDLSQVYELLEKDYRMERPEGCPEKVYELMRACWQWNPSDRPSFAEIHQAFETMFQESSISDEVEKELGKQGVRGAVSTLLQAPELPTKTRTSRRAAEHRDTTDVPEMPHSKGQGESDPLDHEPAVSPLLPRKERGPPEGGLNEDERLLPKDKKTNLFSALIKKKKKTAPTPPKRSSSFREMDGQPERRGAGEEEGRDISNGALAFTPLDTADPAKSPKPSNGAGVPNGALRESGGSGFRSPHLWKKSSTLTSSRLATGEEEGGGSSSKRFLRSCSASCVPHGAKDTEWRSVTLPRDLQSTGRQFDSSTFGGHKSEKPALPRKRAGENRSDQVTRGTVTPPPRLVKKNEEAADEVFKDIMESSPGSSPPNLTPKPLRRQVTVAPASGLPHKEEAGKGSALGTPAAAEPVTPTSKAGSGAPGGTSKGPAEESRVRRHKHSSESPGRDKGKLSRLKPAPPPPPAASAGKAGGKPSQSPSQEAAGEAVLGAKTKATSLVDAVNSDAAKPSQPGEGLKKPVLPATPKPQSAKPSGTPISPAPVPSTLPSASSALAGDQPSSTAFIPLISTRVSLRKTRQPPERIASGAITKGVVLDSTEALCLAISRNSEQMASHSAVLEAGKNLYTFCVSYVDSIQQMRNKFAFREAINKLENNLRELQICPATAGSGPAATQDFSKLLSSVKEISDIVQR

## Cc1ccc(-c2nn(C(C)(C)C)c3ncnc(N)c23)cc1
[1]
  IC50: 0.036 µM
[2]
  IC50: 0.657 µM

## CCOC(Cn1nc(-c2ccoc2)c2c(N)ncnc21)OCC
[3]
  EC50: 43.1 µM

## Cc1nc(Nc2ncc(C(=O)Nc3c(C)cccc3Cl)s2)cc(N2CCN(CCO)CC2)n1.O [DASATINIB]
[4]
  Activity: Dose-dependent effect
[5]
  Activity: Toxic
[6]
  Activity: Toxic
[7]
  solubility: 18 mg/mL
[8]
  solubility: < 0.001 mg/mL
[9]
  half-life: 54 min
[10]
  Activity: Toxic

## Cc1ccc(-c2nn(CCN3CCN(C)CC3)c3ncnc(N)c23)cc1
[11]
  Activity: Active

## CCOC(Cn1nc(C#Cc2ccccc2)c2c(N)ncnc21)OCC
[3]
  EC50: 5 µM

## COc1cc(-c2nn(CCN3CCC(N(C)C)CC3)c3ncnc(N)c23)ccc1NCc1ccccn1
[12]
  EC50: 40.2 µM

## COc1ccc(-c2nn(CCN3CCC(N(C)C)CC3)c3ncnc(N)c23)cc1NC(=O)OC(C)(C)C
[12]
  EC50: 28.6 µM

## CN(C)CC1CCN(CCn2nc(C#Cc3ccccc3)c3c(N)ncnc32)CC1
[3]
  EC50: 13.5 µM

## COc1cc(-c2nn(CCN3CCC(N(C)C)CC3)c3ncnc(N)c23)ccc1N
[12]
  EC50: 6.72 µM

## CCOC(Cn1nc(-c2ccc(OC)c(OC)c2)c2c(N)ncnc21)OCC
[3]
  EC50: 6.1 µM

## Cc1ccc(-c2nn(CCN3CCC(N(C)C)CC3)c3ncnc(N)c23)cc1
[11]
  Activity: Active
[13]
  IC50: > 10 µM
[14]
  IC50: > 10 µM
[2]
  IC50: > 10 µM
[15]
  IC50: 6.58 µM

## Cc1ccc(-c2nn(CCN3CCC(CN(C)C)CC3)c3ncnc(N)c23)cc1
[11]
  Activity: Active
[13]
  IC50: > 10 µM
[14]
  IC50: > 10 µM
[2]
  IC50: > 10 µM
[15]
  IC50: > 10 µM

## CN(C)CC1CCN(CCn2nc(-c3cccc(O)c3)c3c(N)ncnc32)CC1
[3]
  EC50: 30.3 µM

## CN(C)CC1CCN(CCn2nc(-c3ccc4ncccc4c3)c3c(N)ncnc32)CC1
[3]
  EC50: 93.6 µM

## COc1cc(-c2nn(CCN3CCC(N(C)C)CC3)c3ncnc(N)c23)ccc1NC(=O)CCc1ccccc1
[12]
  EC50: 12.2 µM

## CCOC(Cn1nc(-c2cnc3[nH]ccc3c2)c2c(N)ncnc21)OCC
[16]
  IC50: 2.45 µM
[1]
  IC50: 0.566 µM
[17]
  Activity: Active
[18]
  IC50: 1.21 µM
[19]
  IC50: 1.23 µM
[13]
  IC50: > 10 µM
[14]
  IC50: 0.328 µM
[2]
  IC50: > 10 µM
[15]
  IC50: 0.598 µM

## CN(C)CC1CCN(CCn2nc(-c3ccoc3)c3c(N)ncnc32)CC1
[3]
  EC50: 57.1 µM

## COc1cc(-c2nn(CCN3CCC(OC)CC3)c3ncnc(N)c23)ccc1NC(=O)OC(C)(C)C
[12]
  EC50: 1.96 µM
